Results as given in paper PMC7367283, “A PIP2 substitute mediates voltage sensor-pore coupling in KCNQ activation” (Communications Biology, 2020).

Assays:
IKs (KCNQ1 + KCNE1) = IKs (KCNQ1 + KCNE1) (Homo sapiens, UniProt P51787); test: IKs co-expressed with CiVSP (PIP2 depletion), two-electrode voltage clamp in Xenopus oocytes; format: cell-based; settings: 100 µM chromanol 293B, bath application after 10 µM CP1
Source text: We co-expressed KCNQ1 with the voltage-dependent lipid phosphatase CiVSP[44] in Xenopus oocytes and recorded KCNQ1 currents using two-electrode voltage clamp with consecutive depolarizing voltage pulses. […] To more directly test CP1 effects, we applied CP1 to the intracellular side of the inside-out membrane patch that expressed IKs channels.

KCNQ2/KCNQ3 channel = system: KCNQ2/KCNQ3 channel; parameters: method as in PMID 22303005; settings: cited from earlier work

Compound | effect on CP1-rescued IKs currents (IKs (KCNQ1 + KCNE1)) | effect on channel activity (KCNQ2/KCNQ3 channel)
CCS(=O)(=O)N(C)[C@H]1c2cc(C#N)ccc2OC(C)(C)[C@@H]1O (racemic) [Chromanol 293B, reference compound] | inhibited | –
O=P(O)(O)O[C@@H]1[C@H](O)[C@H](O)[C@@H](OP(=O)(O)O)[C@H](OP(=O)(O)O)[C@H]1O [I(1,4,5)P3] | – | no effect on channel activity
O=P(O)(O)O[C@@H]1[C@@H](O)[C@H](O)[C@H](O)[C@H](O)[C@H]1OP(=O)(O)O [I(4,5)P2] | – | no effect on channel activity
